Measurements taken from US8969408B2, “Use of lignan-type compounds or extract of nutmeg or aril of nutmeg comprising the same” (Biocare Co., Ltd., priority 2007, dated 2015).
Each block holds one compound with its values, some of them ahead of it.

Columns and labels:
Assay type in all cases: cell-based
Melan-a cells = assay: Melanin production inhibition activity in Melan-a cells
Procedure: Specifically, Melan-a cells were placed on a 6-well plate (melanin quantitated) at a concentration of 2×10^5 cells/mL (final volume=3 mL) and cultured in a 10% CO2 incubator (MCO-20AIC, Sanyo) at 37° C., using RPMI 1640 containing 10% FBS and 2 μM TPA (phorbol-12-myristate 13-acetate), for 24 hours. After removing the culture medium, the nutmeg ethanol extract prepared in Example 1-1 was added to RPMI 1640 medium and treated every day for 3 days. 5 days later, the culture medium was removed from the 6-well plate and, after treating with 0.25% trypsin-EDTA solution (Sigma Chemical Co.), cell pellets were collected and transferred to a 1.5 mL tube. After centrifuging at 10,000 rpm for 10 minutes, the supernatant was removed. Thus obtained pellets were dried at 60° C. and added to 100 μL of 1N NaOH in order to dissolve melanin contained in the cells. The solution was diluted with PBS and absorbance was measured at 475 nm using an ELISA reader. Melanin content was calculated according to the following Equation 1. The group to which the nutmeg ethanol extract was not used served as the control group. [formula] […] Melan-a cells were treated with the […] isolated in Example 2-1, and the degree of melanin production was measured in the same manner as Test Example 1-1.

tyrosinase [1] = biological target: T1, tyrosinase (Mus musculus, UniProt P11344); assay: Tyrosinase inhibition activity (DOPA chrome production) in treated Melan-a cells
T1 construct: endogenous in cells; host or cells: Melan-a cells (melanocytes)
T1 sequence (P11344 19-533): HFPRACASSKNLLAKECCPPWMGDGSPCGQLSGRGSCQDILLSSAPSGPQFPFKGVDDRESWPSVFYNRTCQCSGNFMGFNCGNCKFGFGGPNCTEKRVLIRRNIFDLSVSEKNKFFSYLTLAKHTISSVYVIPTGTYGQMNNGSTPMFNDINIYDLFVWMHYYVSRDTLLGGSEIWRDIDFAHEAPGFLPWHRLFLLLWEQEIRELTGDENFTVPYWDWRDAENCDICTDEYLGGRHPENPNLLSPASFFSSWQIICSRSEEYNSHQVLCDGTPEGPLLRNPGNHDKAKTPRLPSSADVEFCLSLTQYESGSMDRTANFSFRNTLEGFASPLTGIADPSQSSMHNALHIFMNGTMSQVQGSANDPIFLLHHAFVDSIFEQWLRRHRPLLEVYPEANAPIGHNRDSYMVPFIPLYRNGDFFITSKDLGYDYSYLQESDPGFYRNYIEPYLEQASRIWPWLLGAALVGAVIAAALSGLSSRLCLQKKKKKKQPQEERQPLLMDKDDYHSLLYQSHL
Procedure: 5 days later, the culture medium was removed from the 6-well plate and, after treating with 0.25% trypsin-EDTA solution (Sigma Chemical Co.), cell pellets were collected and transferred to a 1.5 mL tube. After adding 200 μL of phosphate buffer (pH 6.8) followed by centrifuging at 10,000 rpm for 10 minutes, the supernatant was collected. 150 μL of the supernatant was moved to a 96-well microplate and 50 μL of catechol was added. After culturing at 37° C. for 30 minutes, the amount of produced DOPA chrome was determined by measuring absorbance at 490 nm using a microplate reader.

tyrosinase [2] = assay: Inhibition of expression of tyrosinase (Western blotting), Melan-a cells; conditions: result in words
Procedure: (§1) Western blotting and Bradford protein assay were carried out in order to investigate if the nutmeg ethanol extract prepared in Example 1-1 inhibits the expression of tyrosinase, tyrosinase-related protein 1 (TRP-1) and tyrosinase-related proteins 2 (TRP-2).
(§2) Specifically, proteins were extracted from the cells treated in Test Example 1-1 with the nutmeg ethanol extract and subjected to electrophoresis in 10% SDS-polyacrylamide gel. Then, the proteins were transferred from the gel to a nitrocellulose membrane. After treating with 5% skim milk at room temperature for 1 hour, primary antibodies of tyrosinase, TRP-1 and TRP-2 diluted in 5% skim milk to 1:1000 were added and allowed to be incubated at room temperature for 2 hours. After the incubation, the membrane was washed with Tris-buffer saline Tween 20(TBST) twice, for 10 minutes per each, while shaking. Secondary antibodies which recognize the primary antibodies, diluted in 5% skim milk to 1:1000, were added and allowed to be incubated at room temperature for 1 hour. As for the primary antibodies, the membrane was washed with TBST three times, for 10 minutes per each, while shaking, and subjected to development by chemiluminescence.
(§3) Melan-a cells were treated with the macelignan isolated in Example 2-1, and it was investigated if the expression of tyrosinase, TRP-1 and TRP-2 was inhibited, in the same manner as Test Example 3-1.

[3] = tested on: tyrosinase-related protein 1 (TRP-1); assay: Inhibition of expression of TRP-1 (Western blotting), Melan-a cells; conditions: result in words
Procedure: as §1, §2, §3

[4] = tested on: tyrosinase-related proteins 2 (TRP-2); assay: Inhibition of expression of TRP-2 (Western blotting), Melan-a cells; conditions: result in words
Procedure: as §1, §2, §3

- DOPA chrome production inhibition (tyrosinase [1]; concentration not given): about 60.04%
Structure (SMILES): C/C=C/c1cc(OC)c2c(c1)[C@@H](C)[C@H](c1ccc3c(c1)OCO3)O2 [licarin E, 5-(7-methoxy-3-methyl-5-propenyl-2,3-dihydro-benzofuran-2-yl)-benzo[1,3]dioxole]
- inhibition at 50 µM (Melan-a cells; 50 μM): ~58.4%

Structure (SMILES): COc1cc(C[C@H](C)[C@H](C)Cc2ccc3c(c2)OCO3)ccc1O [macelignan, 4-((2S,3R)-4-benzo[1,3]dioxol-5-yl-2,3-dimethyl-butyl)-2-methoxyphenol]
- melanin production inhibition activity (FIG. 1, FIG. 2) (Melan-a cells; result in words, P<0.01): superior melanin production inhibition activity
- DOPA chrome production / tyrosinase activity (FIG. 3, FIG. 4) (tyrosinase [1]; result in words, P<0.01): superior DOPA chrome production inhibition activity
- expression of tyrosinase (FIG. 5, FIG. 6) (tyrosinase [2]): could inhibit the expression
- expression of TRP-1 (FIG. 5, FIG. 6) [3]: could inhibit the expression
- expression of TRP-2 (FIG. 5, FIG. 6) [4]: could inhibit the expression
